Entries after “also recorded” stand apart in the source; their conditions may differ. Read-outs that look alike come from different tables or passages of the source.
Legend:
[1] = MoveDMD trial: systemic exposure and Ctrough in DMD patients; type: in vivo, human; conditions: for daily exposure level versus level effective in inhibiting NF-κB in the adult study: boys with DMD
Experimental: The MoveDMD trial (see FIG. 10) was designed to evaluate efficacy, safety/tolerability, pharmacokinetics (PK), pharmacodynamics (PD), and dose response of edasalonexent. The first phase portion of the MoveDMD trial was a 1-week study to evaluate the safety, PK, and PD at 33 and 67 mg/kg/day, given in 2 divided doses, and 100 mg/kg/day given in 3 divided doses.
(§1) The second phase and the open-label extension (OLE) portions of the MoveDMD trial enrolled boys ages 4 through 7 with DMD. Phase 2 was a 12-week placebo-controlled study with two cohorts given 33 mg/kg twice daily (BID; 67 mg/kg/day; n=10) or 33 mg/kg three times daily (TID; 100 mg/kg/day; n=10), and a placebo cohort (n=10). Patients in the OLE continued with either dose regimen of edasalonexent.
The ratios of all 24 transcripts within a patient were also averaged, and are shown in FIG. 13 using symbols which represent this average from each individual patient. This average was graphed against the average edasalonexent Ctrough values within each dose cohort (shown on the x-axis in ng/ml).

boys with DMD [2] = assay: MoveDMD trial: safety and tolerability; type: in vivo, human
Experimental: as §1, with “The MoveDMD trial (see FIG. 10) was designed to evaluate efficacy, safety/tolerability, pharmacokinetics (PK), pharmacodynamics (PD), and dose response of edasalonexent. The first phase portion of the MoveDMD trial was a 1-week study to evaluate the safety, PK, and PD at 33 and 67 mg/kg/day, given in 2 divided doses, and 100 mg/kg/day given in 3 divided doses. The” for “The”

NF-κB [3] = conditions: cited from earlier work
NF-κB [4] = conditions: dog model of DMD; cited from earlier work
boys with DMD [5] = assay: MoveDMD trial: NSAA and timed function tests in boys with DMD; type: in vivo, human
Experimental: The MoveDMD trial (see FIG. 10) was designed to evaluate efficacy, safety/tolerability, pharmacokinetics (PK), pharmacodynamics (PD), and dose response of edasalonexent. The first phase portion of the MoveDMD trial was a 1-week study to evaluate the safety, PK, and PD at 33 and 67 mg/kg/day, given in 2 divided doses, and 100 mg/kg/day given in 3 divided doses. The second phase and the open-label extension (OLE) portions of the MoveDMD trial enrolled boys ages 4 through 7 with DMD. Phase 2 was a 12-week placebo-controlled study with two cohorts given 33 mg/kg twice daily (BID; 67 mg/kg/day; n=10) or 33 mg/kg three times daily (TID; 100 mg/kg/day; n=10), and a placebo cohort (n=10). Patients in the OLE continued with either dose regimen of edasalonexent. The North Star Ambulatory Assessment (NSAA) is a validated functional scale specifically designed for ambulant boys with DMD and measures overall function in young boys. […] The 10-meter walk/run, 4-stair climb, and time to stand are all timed tests used as a measure of function in boys with DMD. In each of these tests, as shown in FIGS. 15-17, the average rate of change of speed by study subjects in completing these physical tasks stabilized during the 60 week 100 mg/kg/day edasalonexent treatment period as compared with the rate of change during the off-treatment control period (36 weeks preceding the treatment period). All timed function test values stabilized during the treatment period.

[6] = Edasalonexent dosing regimen pharmacokinetics in C57BL/6 mice (diet or oral gavage, LC/MS/MS); type: in vivo; conditions: for AUC / Cmax / Tmax / AUC(0-t): C57BL/6, mouse; for AUC(0-t): read-out: AUC0-24 h, day 3 (±SE)
Experimental: C57BL/6 mice were administered edasalonexent in their diet and/or by oral gavage. Pharmacokinetic (PK) modeling was used to identify suitable dosing amounts and timing in relation to the doses of 67 mg/kg/day and 100 mg/kg/day that have been tested in edasalonexent human clinical trials. Specifically, mice were administered 1.5% edasalonexent in their diet, 450 mg/kg/day delivered orally as single daily dose, 450 mg/kg/day delivered orally as three equally divided doses, or 600 mg/kg/day delivered orally as two 150 mg/kg/doses and one 300 mg/kg/dose. For dosing regimens with three daily doses, doses were delivered at 7:00 am, noon and 5:00 pm.
The dosing regimens for each group are depicted in TABLE 1. Each group included 12 mice.
For animals administered edasalonexent in their diet, edasalonexent concentration was measured by LC/MS/MS every 4 hours for 24 hours, beginning on the seventh day of dosing. For animals administered edasalonexent orally, edasalonexent concentration was measured by LC/MS/MS at 0.25, 0.5, 1, 2, 4, 6 and 24 hours after dosing, beginning on the third day of dosing.

mdx mice = conditions: cited from earlier work
[7] = 100 mg/kg/day versus 133 mg/kg/day (33/33/67 mg/kg)
[8] = 100 mg/kg/day, 60 weeks, compared to 36 week off-treatment control period
[9] = gastrocnemius, 1.5% edasalonexent in diet (group 1)

daily exposure level versus level effective in inhibiting NF-κB in the adult study ([1]; 67 mg/kg/day (33 mg/kg twice daily)): comparable | daily exposure level versus level effective in inhibiting NF-κB in the adult study ([1]; 100 mg/kg/day (33 mg/kg three times daily)): comparable | mean Ctrough level ([1]; 100 mg/kg/day compared to 33 and 67 mg/kg/day, after one week): highest Ctrough level | AUC ([6]; po, 1.5 % in diet, gastrocnemius, 1.5% edasalonexent in diet (group 1)): 7620 ng·h/mL | Cmax ([6]; po, 1.5 % in diet, gastrocnemius, 1.5% edasalonexent in diet (group 1), read-out: Cmax): 532 ng/mL | AUC ([6]; po, 1.5 % in diet, plasma, 1.5% edasalonexent in diet (group 1)): 524 ng·h/mL | Cmax ([6]; po, 1.5 % in diet, plasma, 1.5% edasalonexent in diet (group 1), read-out: Cmax): 44.6 ng/mL | Tmax ([6]; plasma, group 2, oral QD 450 mg/kg/dose, day 3): 30 min | Cmax ([6]; plasma, group 2, oral QD 450 mg/kg/dose, day 3, read-out: Cmax (±SE)): 604 ± 83.3 ng/mL | AUC(0-t) ([6]; plasma, group 2, oral QD 450 mg/kg/dose): 1320 ng·h/mL | Tmax ([6]; plasma, group 3, oral TID 150 mg/kg/dose = 450 mg/kg/day, day 3): 30 min | Cmax ([6]; plasma, group 3, oral TID 150 mg/kg/dose = 450 mg/kg/day, day 3, read-out: Cmax (±SE)): 452 ± 47.6 ng/mL | AUC(0-t) ([6]; plasma, group 3, oral TID 150 mg/kg/dose = 450 mg/kg/day): 1360 ± 211 ng·h/mL | Tmax ([6]; plasma, group 4, oral TID 150/150/300 mg/kg/dose = 600 mg/kg/day, day 3): 30 min | Cmax ([6]; plasma, group 4, oral TID 150/150/300 mg/kg/dose = 600 mg/kg/day, day 3, read-out: Cmax (±SE)): 278 ± 46.3 ng/mL | AUC(0-t) ([6]; plasma, group 4, oral TID 150/150/300 mg/kg/dose = 600 mg/kg/day): 2270 ± 587 ng·h/mL | Cmean [6, 9]: 332.8 ng/mL | Cmin [6, 9]: 149.4 ng/mL | AUC of single daily 450 mg/kg dose relative to edasalonexent in diet ([6]; group 2 (450 mg/kg QD) versus group 1 (1.5% in diet), plasma): ~2.5 fold | Cmin ([6]; plasma, 1.5% edasalonexent in diet (group 1)): 10.7 ng/mL | Cmean ([6]; plasma, 1.5% edasalonexent in diet (group 1), from seventh day of dosing): 22.4 ng/mL
SMILES: CC/C=C\C/C=C\C/C=C\C/C=C\C/C=C\C/C=C\CCC(=O)NCCNC(=O)c1ccccc1O [edasalonexent, N-(2-[(4Z,7Z,10Z,13Z,16Z,19Z)-docosa-4,7,10,13,16,19-hexaenamido]ethyl)-2-hydroxybenzamide]
nature of the majority of adverse events (boys with DMD [2]; 100 mg/kg, study subjects): mild in nature and mostly gastrointestinal | safety findings (boys with DMD [2]; 100 mg/kg, study subjects): no adverse findings | tolerability (boys with DMD [2]; 100 mg/kg, study subjects): well tolerated | trends in hematology, chemistry, renal or adrenal function, calcium or phosphate levels (boys with DMD [2]; 100 mg/kg, study subjects): No adverse trends | side effects compared to the 133 mg/kg/day dosing regimen (boys with DMD [2]; [7]): fewer side effects | heart rate (boys with DMD [2]; study subjects over the 60 week study period): decreased toward age normative values | height and weight (boys with DMD [2]; study subjects over the treatment period, CDC Growth Chart percentiles): age appropriate increases | expression of NF-κB driven genes in whole blood (NF-κB [3]; adult study, dose of approximately 100 mg/kg/day): changes in expression of NF-κB driven genes were observed | levels of the p65 subunit of NF-κB (NF-κB [3]; healthy adult humans, compared to placebo or salicylate and omega-3 DHA as separate molecules): lowers levels of the p65 subunit of NF-κB | biomarkers of inflammation in whole blood (NF-κB [3]; humans): decrease of biomarkers of inflammation | activated NF-κB pathways (NF-κB [3]; phase 1 clinical program in adults (Donovan et al. 2017)): inhibited activated NF-κB pathways | safety and tolerability (NF-κB [3]; phase 1 clinical program, three placebo-controlled studies in adults (Donovan et al. 2017)): safe and well-tolerated | NF-κB activity (binding of p65 subunit to DNA, secretion of TNF-α) (NF-κB [4]): decreases NF-κB activity | muscle function and DMD disease progression (boys with DMD [5]; 33 mg/kg TID (100 mg/kg/day), 60 weeks, compared to off-treatment control period): clinically meaningful slowing of disease progression; also recorded: preservation of muscle function and slowing of DMD disease progression | efficacy compared to the 133 mg/kg/day dosing regimen (boys with DMD [5]; [7]): equally effective | 4-stair climb, average rate of change of speed (boys with DMD [5]; [8]): stabilized | 10-meter walk/run, average rate of change of speed (boys with DMD [5]; [8]): stabilized | North Star Ambulatory Assessment (NSAA) score, rate of change (boys with DMD [5]; [8]): stabilized | time to stand, average rate of change of speed (boys with DMD [5]; [8]): stabilized | treatment effects (boys with DMD [5]; boys affected by DMD enrolled at age 4-7, MoveDMD phase 2 trial and open-label extension): positive treatment effects | diaphragm function and cumulative run distance (mdx mice; long-term studies on mdx mice (Milne et al. 2014)): improved diaphragm function and increased cumulative run distance | muscle regeneration, degeneration, inflammation and function (mdx mice; mdx mice (Milne et al. 2014)): enhance muscle regeneration, reduce muscle degeneration and inflammation, and preserve muscle function

Source: US20210023029A1, “EDASALONEXENT DOSING REGIMEN FOR TREATING MUSCULAR DYSTROPHY” (Catabasis Pharmaceuticals, Inc., priority 2017, published 2021)
